Source: US8168617B2, “Complex pantoic acid ester neopentyl sulfonyl ester cyclization release prodrugs of acamprosate, compositions thereof, and methods of use” (XenoPort, Inc., priority 2007, dated 2012)

What was measured:
[1] = rat, in vivo
Procedure: Rats were obtained commercially and were pre-cannulated in the jugular vein. Animals were conscious at the time of the experiment. All animals were fasted overnight and until 4 hours post-dosing of a prodrug of Formula (I).
Rat blood samples (0.3 mL/sample) were collected from all animals prior to dosing and at different time-points up to 24 h post-dose into tubes containing EDTA. Two aliquots (100 μL each) were quenched with 300 μL methanol and stored at −20° C. prior to analysis.
To prepare analysis standards, 90 μL of rat blood was quenched with 300 μL methanol followed by 10 μL of spiking standard and/or 20 μL of internal standard. The sample tubes were vortexed for at least 2 min and then centrifuged at 3400 rpm for 20 min. […]
LC-MS-MS analysis was performed using an API 4000 equipped with Agilent 1100 HPLC and a Leap Technologies autosampler. […] Acamprosate was monitored in negative ion mode. […] Prodrug was monitored in positive ion mode. […]
The percent relative bioavailability (F %) of acamprosate was determined by comparing the area under the acamprosate concentration vs time curve (AUC) following oral or colonic administration of an acamprosate prodrug or acamprosate with the AUC of the acamprosate concentration vs time curve following intravenous administration of acamprosate on a dose normalized basis.

cocaine conditioned mice = conditions: 100 mg/kg acamprosate for 3 days; cited from earlier work
[2] = post-dose; doses about 1-2 gm per day; cited from earlier work

Row | Compound | acamprosate colonic bioavailability relative to the acamprosate colonic bioavailability of an equivalent dose of acamprosate itself [1] | acamprosate oral bioavailability relative to the acamprosate oral bioavailability of an equivalent dose of acamprosate itself [1] | relapse-like behavior (cocaine conditioned mice) | time at which steady-state plasma concentration occurs [2] [h]
1 | CC(=O)NCCCS(=O)(=O)OCC(C)(C)[C@@H](O)C(=O)OC(C)OC(=O)OC(C)C (stereo partly drawn) [Compound 40, (Methylethoxycarbonyloxy)ethyl (2R)-4-{[3-(acetylamino)propyl]sulfonyloxy}-2-hydroxy-3,3-dimethylbutanoate] | at least 5 times | at least 5 times | – | –
2 | CC(=O)NCCCS(=O)(=O)O [acamprosate, 3-(Acetylamino)propylsulfonic acid] | – | – | attenuated relapse-like behavior | 3 to 8
